Assay results reported in paper PMC7493682, “Caffeine Targets SIRT3 to Enhance SOD2 Activity in Mitochondria” (Frontiers in Cell and Developmental Biology, 2020).

Biological target: T1, SIRT3 (Homo sapiens, UniProt Q9NTG7)
T1 sequence (Q9NTG7 102-399): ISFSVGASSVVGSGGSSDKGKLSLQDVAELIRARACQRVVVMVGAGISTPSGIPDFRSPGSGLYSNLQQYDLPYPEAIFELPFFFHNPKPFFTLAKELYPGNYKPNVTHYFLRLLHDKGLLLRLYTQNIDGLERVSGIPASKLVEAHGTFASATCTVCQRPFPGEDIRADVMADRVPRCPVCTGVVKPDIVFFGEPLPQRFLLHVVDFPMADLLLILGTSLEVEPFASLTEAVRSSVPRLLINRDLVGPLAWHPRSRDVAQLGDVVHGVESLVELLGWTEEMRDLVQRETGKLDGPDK
Assay: SPR (Biacore S200, immobilized SIRT3); also BLI (KD […]) and activation of the pure enzyme
Format: binding

Question: How did the Kd turn out when `Cn1c(=O)c2c(ncn2C)n(C)c1=O` [Caffeine, 1,3,7-trimethylxanthine] was run?
Answer: 0.686 µM
